Article PMC8708875 (Pharmaceutics, 2021)
Read-outs that look alike come from different tables or passages of the source.

Tested on: Glut4
Assay: GLUT4 translocation assay (subcellular fractions, Western blot)
Format: cell-based, mouse
Protocol: C2C12 differentiated myotubes were starved with free-FBS low glucose DMEM for 3 h, and then treated with saline or 5 µM of BMS-536924 insulin receptor inhibitor (Sigma-Aldrich, Sao Paulo, Brazil) for 30 min. Next, C2C12 were incubated in the presence of either vehicle, insulin (100 nM) or Ric4 (100 µM) for 30 min. As described by Tortorella and Pilch, 2002, cells were washed three times with PBS, and homogenized with 40 strokes of a glass tissue grinder in buffer containing sucrose 255 mM, disodium 4 mM, EDTA 20 mM, 4-(2-hydroxyethyl)-1-piperazineethanesulfonic acid (HEPES) 10 mM, pH 7.4, leupeptin 10 µM, pepstatin 1µM, aprotinin 1 µM, phenylmethylsulfonyl fluoride (PMSF) 1 mM, and benzamidine 5 mM (HES buffer). The homogenate was centrifuged at 19,000× g for 20 min. The pellet was saved (P1). The supernatant was recovered and centrifuged at 40,000× g for 20 min. The pellet (MF1) was resuspended in HES buffer. The supernatant was further centrifuged at 180,000× g for 1.5 h and the pellet (MF2) was resuspended in HES buffer. Both pellets MF1 and MF2, referred to as microsomal fraction (MF) correspond to high- and low-density microsomes. The pellet from the first centrifugation (P1) was resuspended in HES buffer, layered onto a 1.12 M sucrose cushion in 20 mM HEPES and 1 mM disodium EDTA, and centrifuged at 100,000× g for 1 h. The pellet (nuclear/endoplasmic reticulum fraction -N/ER) was resuspended in a buffer containing 20 mM Tris (pH 7.4), 50 mM NaCl, 2% Nonidet P-40, 0.5% deoxycholate, 0.2% SDS, and the protease inhibitor cocktail (#P8340; Sigma Aldrich, SP, Brazil). The interphase of the sucrose cushion was collected and pelleted at 40,000× g for 20 min. This PM-containing pellet (PM) was resuspended in PBS plus protease inhibitors. All centrifugations were performed at 4 °C with a Beckman Coulter Ultracentrifuge. Total protein of all samples was determined using Pierce™ BCA Protein Assay Kit (ThermoFisher, Sao Paulo, Brazil). Proteins were submitted to Western blot analysis as described above, using as primary antibody anti-Glut4 (1:1000, Cell Signaling, Boston, MA, USA).
Figure 4 Glucose uptake and GLUT4 translocation induced by Ric4 in C2C12 cells. C2C12 cells were previously incubated in serum-free and glucose-free DMEM medium, then incubated with HEPES buffer for 30 min and then incubated for a further 30 min in glucose-uptake buffer containing vehicle, Ric4 (100 µM), or insulin (100 nM) in the presence of ^3H-glucose (1 µCi/mL) or 2-NBDG (80 µM). After incubations cells were lysed with 50 μL of 0.1 N NaOH and fluorescence or radiation of aliquots from the lysate were measured (A). Epididymal adipose tissue explants (20–25 mg) were incubated in Krebs–Ringer bicarbonate buffer containing glucose 5.5 mM and 1 μCi/mL of ^3H-deoxyglucose supplemented with 2% fatty acid-free for 30 min at 37 °C in the presence or absence of insulin (100 nM) or Ric4 (100 µM). The explants were processed to evaluate the uptake of ^3H-deoxyglucose (B). Myotubes were previously incubated in serum-free and glucose-free DMEM medium and then treated with control vehicle PBS or Ric4 (100 µM) for 30 min. Proteins from subcellular fractions: N/ER (C), microsomal (D), plasma membrane (E), were isolated and the expression Glut4 was analyzed by Western blot. Images were quantified using ImageJ 1.49 software. The statistical comparisons were performed using analysis of variance (ANOVA), followed by ad-hoc Tukey’s test using GraphPad Prism software * p < 0.05; # p < 0.05; **** p < 0.0001.

[1] = C2C12 myotubes, Ric4 100 µM, insulin 100 nM, 30 min, Western blot

Substance: Insulin
- Glut4 presence in microsomal membranes [1]: not observed
- translocation of Glut4 to plasma membrane [1]: induced translocation of Glut4 to plasma membrane
- translocation of Glut4 to rough endoplasmic reticulum (RER) membranes (N/ER fraction) [1]: not observed

Substance: LASVSTVLTSKYR [Ric4, intracellular peptide derived from hemoglobin alpha subunit, last 13 C-terminal amino acids]
- Glut4 presence in microsomal membranes: decreasing
- translocation of Glut4 to plasma membrane [1]: induced translocation of Glut4 to plasma membrane
- translocation of Glut4 to rough endoplasmic reticulum (RER) membranes (N/ER fraction) [1]: increased
